Patent US11420934B2, “PPAR agonists” (Salk Institute for Biological Studies, priority 2013, dated 2022)
Read-outs that look alike come from different tables or passages of the source.

Assays:
PPARδ = molecular target: T1, PPARδ (Homo sapiens, UniProt Q03181); test: Nuclear Hormone Receptor (NHR) protein interaction assay (PathHunter), agonist format; assay type: cell-based
T1 construct: expressed in transfected cells; host or cells: PathHunter NHR cell lines
T1 sequence (Q03181 1-441): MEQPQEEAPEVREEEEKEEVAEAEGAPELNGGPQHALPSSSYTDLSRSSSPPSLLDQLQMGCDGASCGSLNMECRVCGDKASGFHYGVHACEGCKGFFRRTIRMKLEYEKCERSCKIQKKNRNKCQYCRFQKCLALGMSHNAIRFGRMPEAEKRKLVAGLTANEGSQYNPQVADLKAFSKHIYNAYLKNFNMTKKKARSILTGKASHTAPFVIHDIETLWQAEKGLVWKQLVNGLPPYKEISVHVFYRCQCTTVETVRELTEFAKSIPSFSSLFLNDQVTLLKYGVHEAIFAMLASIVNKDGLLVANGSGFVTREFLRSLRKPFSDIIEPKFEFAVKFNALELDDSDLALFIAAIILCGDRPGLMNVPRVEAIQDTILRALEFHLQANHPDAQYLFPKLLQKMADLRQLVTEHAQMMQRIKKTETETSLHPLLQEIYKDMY
Method: PathHunter NHR cell lines were expanded from freezer stocks according to standard procedures. Cells were seeded in a total volume of 20 μL into white walled, 384-well microplates and incubated at 37° C. for the appropriate time prior to testing. Assay media contained charcoal-dextran filtered serum to reduce the level of hormones present.
For agonist determination, cells were incubated with sample to induce response. Intermediate dilution of sample stocks was performed to generate 5× sample in assay buffer. 5 μL of 5× sample was added to cells and incubated at 37° C. or room temperature for 3-16 hours. Final assay vehicle concentration was 1%.
Microplates were read following signal generation with a PerkinElmer Envision™ instrument for chemiluminescent signal detection.
Compound activity was analyzed using CBIS data analysis suite (ChemInnovation, CA). For agonist mode assays, percentage activity was calculated using the following formula: % Activity=100%×(mean RLU of test sample−mean RLU of vehicle control)/(mean MAX control ligand−mean RLU of vehicle control).

[1] = assay type: in vitro ADME
[2] = Pharmacokinetics in Wistar rats; assay type: in vivo; details: male Wistar rats
Method: (§1) In this example, the PK profile of several PPARδ agonists disclosed herein in male CD-1 mice or Wistar rats was determined. Similar methods can be used to analyze other compounds provided herein.
(§2) (quantity sufficient i.e. made up to a final volume of 100% with water). All compounds were separately administered to CD-1 mice at 3 mg/kg iv or 10 mg/kg po.
(§3) The concentration of the compound in plasma was determined, as illustrated in FIGS. 9A-9E.

thermal injury to the TA = test: Muscle regeneration after thermal (freeze burn) injury to the TA, oral GW501516; assay type: in vivo, C57BL6J mice
Method: A stainless steel […] (Mettler-Toledo) equilibrated to the temperature of dry ice was placed directly on the exposed TA for 10 seconds. Following the thermal injury, incision was closed using VetBond (3M). All injury procedures were performed on the left leg, and the right leg was used as control.
Sterile 1% w/v Evans Blue dye in PBS was intraperitoneally injected at 1% volume relative to the body mass of an animal. 7 hours after the injection, injured TA muscles were harvested and snap-frozen by isopentane quenching in liquid nitrogen. Frozen sections were cut in 10 μm thickness, fixed in ice-cold acetone, dipped in xylene and mounted with DPX. Proportion of the stained area over the total area was measured using ImageJ software.
50 mg/kg body weight of BrdU (Sigma) was injected intraperitoneally as solution of 10 mg/mL BrdU in saline. TA muscles were harvested at 7 days after injury and processed for paraffin sections as described above. BrdU incorporation was visualized using the BrdU Labeling and Detection Kit I (Roche) and BrdU+ nuclei were counted and represented as a proportion of total nuclei in a field.
Whole or partial tissues were homogenized by Polytron probe homogenizer in Trizol reagent (Invitrogen). Total RNA was extracted from the homogenates according to the manufacturer's protocol. 1 μg of DNase-treated total RNA was reverse transcribed using Superscript II Reverse Transcriptase (Invitrogen) according to the manufacturer's instructions. cDNAs were diluted 1/40 with ddH2O and used as templates in RT-QPCR reactions with SYBRGreenER qPCR SuperMix detection system (Invitrogen). Samples were prepared in technical triplicates and relative mRNA levels were calculated by using the standard curve methodology and normalized against GAPDH mRNA levels in the same samples.

[3] = Pharmacokinetics in CD-1 mice; assay type: in vivo
Method: as §1, §2, §3

FGF1a promoter = test: Luciferase reporter assay of FGF1a promoter co-transfected with PPARδ; assay type: cell-based; details: with ligand
AKO mice = test: GW treatment in mouse model of ALD (AKO mice); assay type: in vivo
Description: ALD is a rare genetic disorder caused by defects in peroxisomal oxidation of very long-chain fatty acids (VLCFAs), resulting in systemic accumulation of VLCFAs, which causes tissue defects mainly in the central nervous system and the adrenal glands. The majority of VLCFAs in the body are endogenously synthesized from long-chain fatty acids (LCFAs). Therefore, one potential way to prevent VLCFA accumulation in ALD is by inducing mitochondrial LCFA oxidation to reduce the availability of LCFAs for VLCFA biosynthesis. In order to test this, a previously described mouse model of ALD was used, in which the X-linked adrenoleukodystrophy gene abcd1 was systemically ablated and the knockout (AKO) mice faithfully recapitulated the abnormal VLCFA accumulation phenotype seen in ALD patients.
3-month-old AKO mice were treated with or without GW and their tissues collected for free FA analysis using GC/MS.

[4] = Tables 7-16, read-out: NHR protein interaction assay, EC50 (nM) for PPARδ

## CC(C)N(Cc1ccccc1OCCCCCC(=O)O)C(=O)c1ccc(Cl)cc1 [Compd 125]
PPARδ; [4]
  EC50: 291 nM

## CC(C)N(Cc1ccccc1OCCCCCC(=O)O)C(=O)c1ccc(N(C)C)cc1 [Compd 128]
PPARδ; [4]
  EC50: 5390 nM

## Cc1ccc(C(=O)N(Cc2ccccc2OCCCCCC(=O)O)C(C)C)cc1 [Compd 131]
PPARδ; [4]
  EC50: 1610 nM

## CC(C)N(Cc1ccccc1OCCCCCC(=O)O)C(=O)c1ccc(C#CC2CC2)cc1 [Compd 245]
PPARδ; [4]
  EC50: 10.5 nM

## Cc1cc(SCc2sc(-c3ccc(C(F)(F)F)cc3)nc2C)ccc1OCC(=O)O [GW501516]
[1]
  % Parent remained at 15 min, MLM: 93/76%
  % Parent remained at 60 min, MLM: 93/76%
[2]; 3 mg/Kg i.v.
  Kel: 0.09 h⁻¹
[2]; 10 mg/Kg p.o.
  F: ~100%
Thermal injury to the TA; 5 mg/kg orally, 4 days prior to and 5 days after injury, 5 days after the injury, vehicle 7.6%
  Evans Blue dye uptake, proportion of muscle cross sectional area (CSA) stained: 4.9%
Thermal injury to the TA; 3 days after the injury
  expression of inflammatory marker genes by QPCR: significantly reduced
Thermal injury to the TA; 5 days after the injury, versus vehicle
  reduction in the proportion of stained area: 34.7%
Thermal injury to the TA; 9 day treatment
  PPARδ target genes (PDK4, CPT1b, catalase) expression in TA by QPCR: Up-regulation
Thermal injury to the TA; after 9 days or 4 weeks of ligand treatment
  number of quiescent satellite cells: an increase in the number of quiescent satellite cells was not observed
[3]; 3 mg/Kg i.v.
  Kel: 0.11 h⁻¹
[3]; 10 mg/Kg p.o.
  F: 82.1%
FGF1a promoter
  induction of FGF1a (luciferase reporter): induction of FGF1a

## Cc1cc(SCc2sc(-c3ccc(C(F)(F)F)cc3)nc2C)ccc1OCC(=O)O [GW]
AKO mice; 8 weeks of GW treatment
  liver C26:0: cleared in most GW-treated animals
AKO mice; 8 weeks of GW treatment, GC/MS
  levels of VLCFAs (C22:0, C23:0, C24:0, C26:0) in AKO brain and liver: significantly reduced
AKO mice; GW treatment
  expression of mitochondrial FA oxidation genes (Cpt1a, 1b, Slc25a20, Acadl) in AKO liver and skeletal muscle: dramatically induced
  saturated LCFAs C12:0 to C22:0 and total FAs in liver and muscle: significantly reduced

## COc1ccc(C(=O)N(Cc2ccccc2OCCCCCC(=O)O)C(C)C)cc1 [compound 126]
PPARδ; [4]
  EC50: 1300 nM

## CC(C)N(Cc1ccccc1OCCCCCC(=O)O)C(=O)c1ccc(OC(F)(F)F)cc1 [compound 127]
PPARδ; [4]
  EC50: 44.6 nM

## CC(=O)c1ccc(C(=O)N(Cc2ccccc2OCCCCCC(=O)O)C(C)C)cc1 [compound 129]
PPARδ; [4]
  EC50: 5070 nM

## CC(C)N(Cc1ccccc1OCCCCCC(=O)O)C(=O)c1ccc(S(C)(=O)=O)cc1 [compound 130]
PPARδ
  EC50: > 10000 nM

## CC(C)N(Cc1ccccc1OCCCCCC(=O)O)C(=O)c1ccc(F)cc1 [compound 132]
PPARδ; [4]
  EC50: 2180 nM

## CC(C)N(Cc1ccccc1OCCCCCC(=O)O)C(=O)c1ccc(OC2CC2)cc1 [compound 134]
PPARδ
  EC50: > 10000 nM

## CC(C)N(Cc1ccccc1OCCCCCC(=O)O)C(=O)c1ccc(N2CCCC2)cc1 [compound 136]
PPARδ; [4]
  EC50: 352 nM

## CC(C)N(Cc1ccccc1OCCCCCC(=O)O)C(=O)c1ccc(C#N)cc1 [compound 151]
PPARδ; [4]
  EC50: 894 nM

## CC(C)N(Cc1ccccc1OCCCCCC(=O)O)S(=O)(=O)c1ccc(-c2ccco2)cc1 [compound 152]
PPARδ
  EC50: > 10000 nM

## CC(C)N(Cc1ccccc1OCCCCCC(=O)O)C(=O)c1ccc(-c2ccco2)cn1 [compound 153]
PPARδ
  EC50: 206 nM

## CC(C)N(Cc1ccccc1OCCCCCC(=O)O)C(=O)c1ccc(-c2ccco2)nc1 [compound 155]
PPARδ
  EC50: 26.1 nM

## CC(C)N(Cc1ccccc1OCCCCCC(=O)O)C(=O)c1cnc(-c2ccco2)s1 [compound 156]
PPARδ
  EC50: 143 nM

## CC(C)N(Cc1ccc(-c2ccco2)cc1)C(=O)c1ccccc1OCCCCCC(=O)O [compound 157]
PPARδ
  EC50: > 10000 nM

## CC(C)N(C(=O)Cc1ccccc1OCCCCCC(=O)O)c1ccc(-c2ccco2)cc1 [compound 158]
PPARδ
  EC50: > 10000 nM

## O=C(O)CCCCCOc1ccccc1CN(CC(F)(F)F)C(=O)c1ccc(-c2ccco2)cc1 [compound 177]
PPARδ
  EC50: 12.1 nM

## COCCN(Cc1ccccc1OCCCCCC(=O)O)C(=O)c1ccc(-c2ccco2)cc1 [compound 178]
PPARδ
  EC50: 79.4 nM

## O=C(O)CCCCCOc1ccccc1CNC(=O)c1ccc(-c2ccco2)cc1 [compound 179]
PPARδ
  EC50: 485 nM

## CC(C)N(Cc1cc(Br)ccc1OCCCCCC(=O)O)C(=O)c1ccc(-c2ccco2)cc1 [compound 202]
PPARδ; [4]
  EC50: 7.3 nM

## Cc1ccc(OCCCCCC(=O)O)c(CN(C(=O)c2ccc(-c3ccco3)cc2)C(C)C)c1 [compound 203]
PPARδ; [4]
  EC50: 7.1 nM

## CC(C)N(Cc1cc(F)ccc1OCCCCCC(=O)O)C(=O)c1ccc(-c2ccco2)cc1 [compound 204]
PPARδ; [4]
  EC50: 24.6 nM

## CC(C)N(Cc1cc(C#N)ccc1OCCCCCC(=O)O)C(=O)c1ccc(-c2ccco2)cc1 [compound 205]
PPARδ
  EC50: 224 nM

## COc1ccc(OCCCCCC(=O)O)c(CN(C(=O)c2ccc(-c3ccco3)cc2)C(C)C)c1 [compound 206]
PPARδ; [4]
  EC50: 5.1 nM

## CC(C)N(Cc1cccnc1OCCCCCC(=O)O)C(=O)c1ccc(-c2ccco2)cc1 [compound 207]
PPARδ
  EC50: 19.4 nM

## CC(C)N(Cc1ccccc1OCCCCc1nn[nH]n1)C(=O)c1ccc(-c2ccco2)cc1 [compound 219]
PPARδ
  EC50: 338 nM

## CC(C)N(Cc1ccccc1OCCCCCCC(=O)O)C(=O)c1ccc(-c2ccco2)cc1 [compound 220]
PPARδ; [4]
  EC50: 512 nM

## CC(C)N(Cc1ccccc1OCCCOCC(=O)O)C(=O)c1ccc(-c2ccco2)cc1 [compound 221]
PPARδ
  EC50: 1300 nM

## O=C(O)CCCCCOc1ccccc1CN(Cc1ccccc1)C(=O)c1ccc(-c2ccco2)cc1 [compound 247]
PPARδ; [4]
  EC50: 18.8 nM

## CN(Cc1ccccc1OCCCCCC(=O)O)C(=O)c1ccc(C#CC2CC2)cc1 [compound 248]
PPARδ; [4]
  EC50: 21.1 nM
